Experiments:
[1] = Plasma stability assay, rat plasma; format: in vitro ADME; details: rat, 10 µM
Protocol: (§1) Compound stability in rat and human plasma was measured by incubating compound with rat or human plasma at 37° C. in a microwell plate for sequential time points, monitoring pro-drug disappearance and metabolite appearance (mesembranol or 6-epi-mesembranol). A 2 mM stock solution of test compounds were prepared by dissolving appropriate amount of compounds in DMSO. The 2 mM stock was further diluted 200-folds in rat or human plasma to attain a final concentration of 10 μM respectively (0.5% DMSO). 50 μL aliquots of positive controls and test compounds spiked into rat or human plasma (n=2) were added to a pre-warmed plate (37° C.) and shaken at 50 rpm. At each respective time point, the reaction was stopped by adding 500 μL of acetonitrile containing internal standards (100 nM aprozolam, 200 nM caffeine, 100 nM tolbutamide). All samples were vortexed for 10 minutes, followed by centrifugation at 3,220 g for 30 minutes to precipitate proteins. 100 μL of the supernatant is transferred to a new plate. The supernatant will be diluted with ultrapure water according to the LC-MS signal response and peak shape. The concentrations of test compounds and positive control were quantified in the test samples using LC-MS/MS. Results reported as % of prodrug compound remaining at time point, and % of metabolite (mesembranol or 6-epi-mesembranol,) accumulated at time point.

[2] = Plasma stability assay, human plasma; format: in vitro ADME; details: human, 10 µM
Protocol: as §1

Row | Compound | Prodrug (%) ([1]; 0 min) | Prodrug (%) ([1]; 10 min) | Prodrug (%) ([1]; 30 min) | Prodrug (%) ([1]; 60 min) | Prodrug (%) ([1]; 120 min) | Prodrug (%) ([1]; 240 min) | Prodrug (%) ([2]; 0 min) | Prodrug (%) ([2]; 10 min) | Prodrug (%) ([2]; 30 min) | Prodrug (%) ([2]; 60 min) | Prodrug (%) ([2]; 120 min) | Prodrug (%) ([2]; 240 min)
1 | CCCCC(=O)OC1CC[C@@]2(c3ccc(OC)c(OC)c3)CCN(C)[C@H]2C1 (stereo in doubt) [Compound 205, (3aS,6S,7aS)-3a-(3,4-dimethoxyphenyl)-1-methyloctahydro-1H-indol-6-yl pentanoate] | 100.0% | 0.6% | 0.1% | 0.1% | 0.1% | 0.0% | 100.0% | 96.7% | 90.7% | 84.3% | 80.3% | 67.9%
2 | CCCC(=O)OC1CC[C@@]2(c3ccc(OC)c(OC)c3)CCN(C)[C@H]2C1 (stereo in doubt) [Compound 206, (3aS,6S,7aS)-3a-(3,4-dimethoxyphenyl)-1-methyloctahydro-1H-indol-6-yl butyrate] | 100.0% | 0.8% | 0.1% | 0.0% | 0.0% | 0.0% | 100.0% | >99.0% | 92.7% | 83.8% | 79.1% | 68.0%
3 | COc1ccc([C@@]23CC[C@H](OC(=O)N(C)C)C[C@@H]2N(C)CC3)cc1OC [Compound 101, (3aS,6S,7aS)-3a-(3,4-dimethoxyphenyl)-1-methyloctahydro-1H-indol-6-yl dimethylcarbamate] | 100.0% | 88.7% | 95.0% | 98.2% | 99.4% | 92.2% | 100.00% | >99.0% | >99.0% | >99.0% | >99.0% | >99.0%
4 | COc1ccc([C@@]23CC[C@H](OC(=O)C(C)(C)C)C[C@@H]2N(C)CC3)cc1OC [Compound 102, (3aS,6S,7aS)-3a-(3,4-dimethoxyphenyl)-1-methyloctahydro-1H-indol-6-yl pivalate] | 100.0% | >99.0% | 77.8% | 68.1% | 42.3% | 15.4% | 100.00% | 97.52% | 95.20% | 92.88% | >99.0% | 94.80%
5 | COc1ccc([C@@]23CC[C@H](OC(=O)C(C)C)C[C@@H]2N(C)CC3)cc1OC [Compound 103, (3aS,6S,7aS)-3a-(3,4-dimethoxyphenyl)-1-methyloctahydro-1H-indol-6-yl isobutyrate] | 100.0% | 56.1% | 12.2% | 0.6% | 0.1% | 0.0% | 100.00% | >99.0% | >99.0% | 97.28% | 97.48% | 87.17%

Reference: patent US20240409566A1, “DELIVERY OF THERAPEUTIC ALKALOID COMPOUNDS” (priority 2022, published 2024)
